Source: patent EP1134585B1, “Biosensor and method for the monitoring of herbicides” (CONSIGLIO NAZIONALE DELLE RICERCHE, priority 2000, dated 2001)

Key:
[1] = system: Phe216->Leu; settings: cited from earlier work
[2] = system: Thr226->Ala; settings: cited from earlier work
[3] = system: Thr226->Met; settings: cited from earlier work
[4] = system: Gly228->Arg; settings: cited from earlier work
[5] = system: Gly228->Val; settings: cited from earlier work
[6] = system: I1e229→Met; settings: R. capsulatus; cited from earlier work
[7] = system: Ile229->Thr; settings: cited from earlier work
[8] = biological target: D1 protein Phe255->Tyr (Chlamydomonas reinhardtii, UniProt P07753, F255Y); settings: code Ar207+; cited from earlier work
[9] = system: D1 protein Ser284->Gly; settings: Chenopodium album; cited from earlier work
[10] = system: Gly192->Asp; settings: cited from earlier work
[11] = system: -Phe216→Ser; settings: code T6; cited from earlier work
[12] = system: Tyr222->Phe; settings: code T4; cited from earlier work
[13] = system: Tyr222->Gly; settings: code YG222; cited from earlier work
[14] = system: Ser223->Pro; settings: code SP223; cited from earlier work
[15] = system: Ile229->Met~.Met; settings: code M29; cited from earlier work
[16] = system: Ile229->Ser; settings: cited from earlier work
[17] = system: GluM34->Lys; settings: code M6; cited from earlier work
[18] = system: Phe216→Ser ValM263→Phe; settings: double mutant Phe216→Ser ValM263→Phe, code T3; cited from earlier work
[19] = system: Arg217→His Ser223→Ala; settings: double mutant Arg217→His Ser223→Ala; cited from earlier work
[20] = system: PhC2,6―Pro; settings: cited from earlier work
[21] = system: I1e229->Ala; settings: cited from earlier work
[22] = system: thylakoids from Amaranthus retroflexus, Wild-type; test: Biosensor fluorescence response (Table D), wild-type biomediator; assay type: biochemical; settings: herbicide concentration 10^-6 M
[23] = system: thylakoids from Amaranthus retroflexus, Mutant; assay type: biochemical; settings: herbicide concentration 10^-6 M
[24] = system: PS II; settings: PS II treated with CdCl2, refrigeration at 5°C, flow 0,2-2,0 ml/m
Excerpt: To further increase the stability of the biomediator the usefulness of a system for the refrigeration of the solution containing herbicide forwarded into the measuring cell experimentally was observed.

[25] = biological target: D1 protein Ser264->Ala (Chlamydomonas reinhardtii, UniProt P07753, S264A); settings: codes MZ1 MZ3 MZ5; cited from earlier work
[26] = system: I1e228->Leu; settings: cited from earlier work
[27] = biological target: D1 protein A1a251->Cys (Chlamydomonas reinhardtii, UniProt P07753, A251C); settings: cited from earlier work
[28] = system: monoclonal antibodies; settings: ELISA (Schneider et al. 1994); cited from earlier work
[29] = system: Phe216->Thr; settings: cited from earlier work
[30] = system: Phe216→Val; settings: cited from earlier work
[31] = system: I1e229->Cys; settings: cited from earlier work
[32] = system: Ile229->Met; settings: R. shaeroides; cited from earlier work
[33] = biological target: D1 protein Lysa)238->Val (Synechocystis sp., UniProt P16033, K238V); settings: Lysa)238->Val (Arg in other organisms); cited from earlier work
[34] = biological target: D1 protein Ala250->Arg (Chlamydomonas reinhardtii, UniProt P07753, A250R); settings: cited from earlier work
[35] = biological target: D1 protein Ala250->Asn (Chlamydomonas reinhardtii, UniProt P07753, A250N); settings: cited from earlier work
[36] = biological target: D1 protein Ala250->Asp (Chlamydomonas reinhardtii, UniProt P07753, A250D); settings: cited from earlier work
[37] = biological target: D1 protein A1a250→IIe (Chlamydomonas reinhardtii, UniProt P07753, A250I); settings: cited from earlier work
[38] = biological target: D1 protein A1a250->Tyr (Chlamydomonas reinhardtii, UniProt P07753, A250Y); settings: cited from earlier work
[39] = biological target: D1 protein Ala250→Ser Phe255→IIe (Chlamydomonas reinhardtii, UniProt P07753, A250S/F255I); settings: cited from earlier work
[40] = biological target: D1 protein Phe211→Gly Met214→Gln (Chlamydomonas reinhardtii, UniProt P07753, F211G/M214Q); settings: cited from earlier work

## CSc1nc(NC(C)C)nc(NC(C)C)n1 [Prometryn]
[1]
  Resistance R/S: Prometryn 1,4
[2]
  Resistance R/S: Prometryn 1,4
[3]
  Resistance R/S: Prometryn 1,1
[4]
  Resistance R/S: Prometryn 1,1
[5]
  Resistance R/S: Prometryn 1,4
[6]
  Resistance R/S: Prometryn 2
[7]
  Resistance R/S: Prometryn 1,4

## CNC(=O)N(C)c1nc2ccccc2s1 [Metabenzthiazuron]
[8]
  Supersensitivity R/S: zuron 0,3

## CC(C)N1C(=O)c2ccccc2NS1(=O)=O [Bentazon]
[9]
  Supersensitivity R/S: Bentazon 0,5

## c1cnc2c(c1)ccc1cccnc12 [o-Phenanthroline]
[10]
  Resistance R/S: o-Phenanthroline 3
[11]
  Resistance R/S: o-Phenanthroline 333
[12]
  Resistance R/S: o-Phenanthroline 10
[13]
  Resistance R/S: o-Phenanthroline 26
[14]
  Resistance R/S: o-Phenanthroline 6,25
[2]
  Supersensitivity R/S: line 0,03
[15]
  Resistance R/S: o-Phenanthro me 11
[16]
  Resistance R/S: o-Phenanthroline 1,3
[17]
  Resistance R/S: o-Phenanthroline >25
[18]
  Resistance R/S: o-Phenathroline 67
[19]
  Resistance R/S: o-Phenanthroline 5

## COc1nc(NC(C)C)nc(NC(C)C)n1 [Prometon]
[1]
  Resistance R/S: Prometon 1,8
[20]
  Resistance R/S: Prometon 1,8
[2]
  Resistance R/S: Prometon 1,8
[4]
  Resistance R/S: Prometon 1,2
[5]
  Resistance R/S: Prometon 1,3
[21]
  Resistance R/S: Prometron 1,2
[6]
  Resistance R/S: Prometron 1,2
[7]
  Resistance R/S: Prometon 1,2

## CCNc1nc(Cl)nc(NCC)n1 [Simazine]
[22]
  Area % inhibition Wild-type: 95%
[23]
  Area % inhibition Mutant: 14%
[24]
  sensitivity (concentration): lower than nanomolar

## CNc1nc(NC(C)C)nc(SC)n1 [Desmetryn]
[22]
  Area % inhibition Wild-type: 92%
[23]
  Area % inhibition Mutant: 10%
[12]
  Resistance R/S: Desmetryn 50

## CCC(C)n1c(=O)[nH]c(C)c(Br)c1=O (stereo not drawn) [Bromacil]
[8]
  Supersensitivity R/S: Bromacil 0,9

## CC(C)Cc1cc([N+](=O)[O-])cc([N+](=O)[O-])c1O [i-Dinoseb]
[25]
  Supersensitivity R/S: i-Dinoseb 0,7

## CCNc1nc(NC(C)C)nc(SC)n1 [Ametryn]
[22]
  Area % inhibition Wild-type: 99%
[23]
  Area % inhibition Mutant: 21%
[1]
  Resistance R/S: Ametryn 3,1
[20]
  Resistance R/S: Ametryn 1,9
[12]
  Resistance R/S: Ametryn 330
[2]
  Resistance R/S: Ametryn 4
[3]
  Resistance R/S: Ametryn 2,5
[4]
  Resistance R/S: Ametryn 4
[5]
  Resistance R/S: Ametryn 5,3
[26]
  Resistance R/S: Ametryn 2,5
[6]
  Resistance R/S: Ametryn 5,3
[7]
  Resistance R/S: Ametryn 1,9

## COC(=O)Nc1cccc(OC(=O)Nc2cccc(C)c2)c1 [Phenmedipham]
[27]
  Supersensitivity R/S: 0,8

## CCNc1nc(Cl)nc(NC(C)C)n1 [Atrazine]
[22]
  Area % inhibition Wild-type: 96%
[23]
  Area % inhibition Mutant: 15%
[24]
  sensitivity (concentration): lower than nanomolar
[28]
  sensitivity: 100 pM
[10]
  Resistance R/S: Atrazine 6
[1]
  Resistance R/S: Atrazine 4,2
[20]
  Resistance R/S: Atrazine 1,9
[29]
  Resistance R/S: Atrazine 3,5
[30]
  Resistance R/S: Atrazine 1,8
[12]
  Resistance R/S: Atrazine >600
[2]
  Resistance R/S: Atrazin 3,1
[3]
  Resistance R/S: Atrazine 3,1
[4]
  Resistance R/S: Atrazine 5,4
[5]
  Resistance R/S: Atrazine 4,2
[21]
  Resistance R/S: Atrazine 1,8
[31]
  Resistance R/S: Atrazine 2
[26]
  Resistance R/S: Atrazine 3,5
[6]
  Resistance R/S: Atrazine 5,4
[32]
  Resistance R/S: Atrazine >7
[16]
  Resistance R/S: Atrazine 1,8
[7]
  Resistance R/S: Atrazine 3,7
[33]
  Supersensitivity R/S: Atrazine 0,6
[34]
  Supersensitivity R/S: Atrazin 0.25
[35]
  Supersensitivity R/S: Atrazine 0,3
[36]
  Supersensitivity R/S: Atrazine 0,25
[37]
  Supersensitivity R/S: Atrazine 0,5
[38]
  Supersensitivity R/S: Atrazine 0,4
[27]
  Supersensitivity R/S: Atrazin 0,8
[39]
  Supersensitivity R/S: Atrazine 0,5

## Cc1nnc(-c2ccccc2)c(=O)n1N [Metamitron]
[8]
  Supersensitivity R/S: Metamitron 0,3
[40]
  Supersensitivity R/S: 0,4

## CCNc1nc(NC(C)(C)C)nc(SC)n1 [Terbutryn]
[10]
  Resistance R/S: Terbutryn 300
[11]
  Resistance R/S: Terbutryn >2800
[13]
  Resistance R/S: Terbutryn >3000
[14]
  Resistance R/S: Terbutryn >3000
[2]
  Resistance R/S: Terbutryn 1,7
  Supersensitivity R/S: Terbutryn 0,6(?)
[3]
  Resistance R/S: Terbutryn 1,7
[4]
  Resistance R/S: Terbutryn 1,3
[5]
  Resistance R/S: Terbutryn 1,5
[6]
  Resistance R/S: Terbutryn 1,9
[15]
  Resistance R/S: Terbutryn 120
[16]
  Supersensitivity R/S: Terbutryn 0,4
[17]
  Resistance R/S: Terbutryn > 125
[18]
  Resistance R/S: Terbutryn 166
[19]
  Resistance R/S: Terbutryn 222
[36]
  Supersensitivity R/S: Terbutryn 0,4
[37]
  Supersensitivity R/S: Terbutryn 0,5
[39]
  Supersensitivity R/S: 0,9

## CNC(=O)Nc1nc2ccccc2s1 [Benzthiazuron]
[8]
  Supersensitivity R/S: 0,3
